Assay results: patent publication US20070197625A1, “Azabicyclic compounds, a process for their preparation and pharmaceutical compositions containing them” (Les Laboratoraties Servier, priority 2004, published 2007)

Molecular target: T1, type H3 central histaminergic receptors (Mus musculus, UniProt P58406)
T1 construct: from tissue; host or cells: brain of living NMRI mice
Experiment: Cerebral doses of N^t-methylhistamine in the NMRI mouse (ex vivo, after oral administration)
Settings: NMRI mice, brain two hours after treatment, vs carrier control
Experimental: The aim of this study, carried out according to the method of Taylor et al. (Biochem. Pharm., 1992, 44, 1261-1267), is to evaluate the ex vivo activity of the compounds of the present invention as type H3 central histaminergic receptor antagonists. […] An increase in the cerebral concentrations of N^t-methylhistamine signifies an increase in histamine turnover by blockade of the type H3 central histaminergic receptors.
NMRI mice (18-20 g) are treated via oral administration with the compounds of the present invention or with their carrier (20 ml/kg). Two hours after the pharmacological treatment, the animals are sacrificed, the brains are removed, frozen in liquid nitrogen, weighed and homogenised in 0.1N HClO4 at 4° C. The homogenates are centrifuged (15000 g, 17 min, 4° C.). The supernatants are recovered and divided into aliquots. The aliquots are frozen in liquid nitrogen and stored at −80° C. until their analysis.
Determination of the cerebral levels of N^t-methylhistamine is effected by capillary electrophoresis coupled with detection by laser-induced fluorescence (J. Chromatogr. A., 1996, 755, 99-115). The tissue levels of N^t-methylhistamine are expressed in ng/g of fresh brain. Comparison between the cerebral levels of N^t-methylhistamine of the animals treated with the carrier (control) and the animals treated with the compounds of the present invention (n=5/group) is effected by single factor variance analysis followed, if necessary, by a supplementary analysis (Dunnett's test).

T1 sequence (P58406 whole entry): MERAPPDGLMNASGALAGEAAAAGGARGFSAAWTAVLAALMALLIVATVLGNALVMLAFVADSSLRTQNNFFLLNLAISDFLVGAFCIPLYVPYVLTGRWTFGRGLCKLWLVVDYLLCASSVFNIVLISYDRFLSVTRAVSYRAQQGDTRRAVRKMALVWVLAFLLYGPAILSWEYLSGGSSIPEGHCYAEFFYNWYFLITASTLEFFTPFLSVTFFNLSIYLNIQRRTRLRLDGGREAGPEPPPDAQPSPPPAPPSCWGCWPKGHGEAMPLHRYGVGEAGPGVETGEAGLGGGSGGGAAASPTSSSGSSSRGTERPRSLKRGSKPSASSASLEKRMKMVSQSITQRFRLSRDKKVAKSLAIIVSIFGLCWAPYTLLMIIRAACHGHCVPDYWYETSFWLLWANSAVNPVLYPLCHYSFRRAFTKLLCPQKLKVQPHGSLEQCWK

Compound | increase of the endogenous cerebral concentrations of N^t-methylhistamine (3 mg/kg p.o.) [%] | increase of the endogenous cerebral concentrations of N^t-methylhistamine (10 mg/kg p.o.) [%]
CNC(=O)c1ccc(OCCCN2CC3CCCC3C2)cc1 (centres unmarked) [Example 93, 4-[3-(Hexahydrocyclopenta[c]pyrrol-2(1H)-yl)propoxy]-N-methylbenzamide] | 90 | –
NC(=O)c1ccc(OCCCN2CC3CCCC3C2)cc1.O=C(O)C(=O)O (centres unmarked) [Example 22, 4-(3-Hexahydrocyclopenta[c]pyrrol-2(1H)-ylpropoxy)benzamide oxalate] | 33 | 85
N#Cc1ccc(OCCCN2CC3CCCC3C2)cc1.O=C(O)C(=O)O (centres unmarked) [Example 1, 4-(3-Hexahydrocyclopenta[c]pyrrol-2(1H)-ylpropoxy)benzonitrile oxalate] | – | 92
CC(=O)Nc1ccc(OCCCN2CC3CCCC3C2)cc1.O=C(O)C(=O)O (centres unmarked) [Example 4, N-[4-(3-Hexahydrocyclopenta[c]pyrrol-2(1H)-ylpropoxy)-phenyl]acetamide oxalate] | 52 | –
